Laboratory results reported in patent publication US11878987B2, “Heterocyclic compound as TRK inhibitor” (Beijing Innocare Pharma Tech Co., Ltd., priority 2018, dated 2024).

Assays:
TRKA = TRKA (Homo sapiens, UniProt P04629); experiment: TRKA activity inhibition test (HTRF kinase assay); type: biochemical; details: humanized recombined TRKA protein, 8.4 μM ATP
Procedure: TRKA Activity Inhibition Test
The effect of the compounds of the invention on TRKA activity was evaluated by in vitro kinase assays
(§1) The experimental methods were summarized as follows:
The in vitro activity of TRKA was measured by the use of a homogeneous time-resolved fluorescence (HTRF) kinase assay kit (Cisbio, NO. 62TKOPEC) through detecting the phosphorylation level of the substrate in the kinase reaction. The reaction buffer contained the following components: reaction buffer of the enzyme in the kit (1×), 5 mM MgCl2, 1 mM DTT; The humanized recombined TRKA protein was expressed and purified by the purification and identification platform of Tsinghua university, and was diluted into kinase solution (3 ng/μl) with the reaction buffer. The substrate reaction solution comprised 0.23 μM biotin-labeled tyrosine kinase substrate and 8.4 μM ATP, which was diluted with reaction buffer. The detection buffer comprised 0.1 ng/μL cage antibody labelled with Eu3+ and 14.375 nM XL665 labeled with streptavidin, which was diluted with reaction buffer.
The compound was dissolved into 100% DMSO and diluted to 100 or 10 μM, then diluted with DMSO in 4 times serial dilution to a minimum concentration of 6.1 or 0.61 nM, and each concentration point was further diluted 40 times with the reaction buffer.
To the 384 well plate (Corning No. 4512), 4 μl of the solution of the test compound and 2 μl of the solution of TRKA kinase were added respectively, then mixed well and incubated at room temperature for 15 minutes. 4 μl of the solution of substrate was then added and the reaction mixture was incubated at room temperature for 60 minutes. A 10 μl detection buffer of the same volume as the reaction mixture was then added, the mixture was mixed well and allowed to stand for 30 minutes at room temperature. The reaction process was monitored at the wavelengths of 620 nm and 665 nm by Envision board reader (Perkin Elmer). The ratio of 665/620 was positively correlated with the phosphorylation level of the substrate, then TRKA kinase activity was determined. […] The inhibition percentage of the test compound on the TRKA activity can be calculated by the following formula: The IC50 value of the compound was calculated at 8 concentration points by use of XLfit software (ID Business Solutions Ltd. UK) through the following formula: Y=Bottom+(Top−Bottom)/(1+10^((log IC50−X)*slope factor)) Of which Y is the inhibition percentage; X is the logarithm of the concentration of the compound to be tested; Bottom is the […] inhibition percentage; Top is the […] inhibition percentage; slope factor is the slope coefficient of the curve.

TRKA G667C = molecular target: T1, TRKA G667C (Homo sapiens, UniProt P04629, G667C); experiment: TRKA G667C activity inhibition test (HTRF kinase assay); type: biochemical; details: humanized recombined TRKA G667C protein, 2.7 μM ATP
T1 construct: purchased Signal Chem Life Sciences N16-12 CG
Procedure: TRKA G667C Activity Inhibition Test:
The effect of the compounds of the invention on the activity of TRKA G667C was evaluated by the in vitro kinase assay.
The experimental methods were summarized below:
The in vitro activity of TRKA G667C was measured using a HTRF kinase assay kit (Cisbio, No. 62TKOPEC) by detecting the phosphorylation level of the substrate in the kinase reaction.
The reaction buffer contained the following components: reaction buffer of the enzyme in the kit (1×), 5 mM MgCl2, 1 mM DTT. The humanized recombined TRKA G667C protein (No. N16-12 CG, Signal Chem Life Sciences) was diluted into 0.09 ng/μl kinase solution with the reaction buffer. […]
4 μl of solution of the test compound and 2 μl of solution of TRKA G667C kinase were added to the 384 well plate (Corning No. 4512), mixed well and incubated at room temperature for 15 minutes. […] The reaction process was monitored at the wavelength of 620 nm and 665 nm by Envision board reader (Perkin Elmer). The ratio of 665/620 was positively correlated with the phosphorylation level of the substrate, then TRKA G667C kinase activity was determined. […]
The IC50 value of the compound was calculated at 8 concentration points by XLfit (ID Business Solutions Ltd. UK) software through the following formula: Y=Bottom+(Top−Bottom)/(1+10^((log IC50−X)*slope factor)) […]

TRKA G595R = molecular target: T2, TRKA G595R (Homo sapiens, UniProt P04629, G595R); experiment: TRKA G595R activity inhibition test (HTRF kinase assay); type: biochemical; details: humanized recombined TRKA G595R protein, 2.9 μM ATP
T2 construct: purchased Signal Chem Life Sciences N16-12BG
Procedure: TRKA G595R Activity Inhibition Test:
The effect of the compounds of the invention on the activity of TRKA G595R was evaluated by the in vitro kinase assay.
The experimental method was summarized below:
The in vitro activity of TRKA G595R was measured using a HTRF kinase assay kit (Cisbio, No. 62TKOPEC) by detecting the phosphorylation level of the substrate in the kinase reaction. The reaction buffer contained the following components: the reaction buffer of the enzyme in the kit (1×), 5 mM MgCl2, 1 mM DTT. The humanized recombined TRKA G595R protein (No. N16-12BG, purchased from Signal Chem Life Sciences) was diluted into 0.25 ng/kinase solution with the reaction buffer. The substrate reaction solution comprised 0.51 μM biotin-labeled tyrosine kinase substrate and 2.9 μM ATP, which was diluted with reaction buffer. The detection buffer comprised 0.15 ng/μL cage antibody labelled with Eu3+ and 31.875 nM XL665 labeled with streptavidin, which was diluted with reaction buffer.
The compound was dissolved into 100% DMSO and diluted to 1 mM or 100 μM, then diluted with DMSO in 4 times serial dilution to a minimum concentration of 61 or 6.1 nM, and each concentration point was further diluted 40 times with the reaction buffer.
4 μl of solution of the test compound and 2 μl of solution of TRKA G595R kinase were added to the 384 well plate (Corning No. 4512), mixed well and incubated at room temperature for 15 minutes. Then 4 μl of solution of substrate was added and the reaction mixture was incubated at room temperature for 60 minutes. 10 μl of detection buffer of the same volume as the reaction mixture was then added, the reaction mixture was mixed well and allowed to stand for 30 minutes at room temperature. The reaction process was monitored at the wavelength of 620 nm and 665 nm by Envision board reader (Perkin Elmer). The ratio of 665/620 was positively correlated with the phosphorylation level of the substrate, then TRKA G595R kinase activity was determined. In this experiment, the group without TRKA G595R kinase was used as the negative control (100% inhibition), the group with TRKA G595R but without the test compound was used as the positive control (0% inhibition). The inhibition percentage of the test compound on TRKA G595R activity can be calculated by the following formula: Inhibition percentage=100−100*(signal value of the test compound under specific concentration−signal value of the negative control)/(signal value of the positive control−signal value of the negative control) The IC50 value of the test compound was calculated at 8 concentration points by use of XLfit (ID Business Solutions Ltd. UK) software through the following formula: Y=Bottom+(Top−Bottom)/(1+10^((log IC50−X)*slope factor)) […]

KM12 cells = experiment: KM12 cell proliferation, luminescent cell viability test (CellTiter-Glo); type: cell-based; details: Homo sapiens, 96 hours, CTG
Procedure: Determination of Median Effective Inhibition Concentration GI50 in KM12 Cells
The effect of the compounds of the invention on the proliferation of KM12 cells was evaluated by the luminescent cell viability test.
as §1
CellTilter-Glo (CTG) detection kit was used. A unique and stable luciferase was used to detect ATP, an indicator of viable cell metabolism. The luminescence signal generated in the experiment was proportional to the number of viable cells in the culture medium, thus the proliferation of KM12 cells was detected.
KM12 cell (purchased from Shanghai Xinyu biological Co.) was cultured in IMDM complete medium (Thermo Fisher, 12440053) containing 10% FBS (GBICO, 10099-141) and 100 units/ml of penicillin streptomycin mixture (Thermofisher, 15140122). When the cell coverage rate in the culture container reached 80-90%, 0.25% trypsin (containing EDTA) (Thermofisher, 25200056) was used to digest and disperse the cells, then they were planted in a white 384 well plate (164610). To each well containing 1000 cells was added 27 μL IMDM complete medium. Then the 384 well plate was cultured overnight in an incubator containing 5% CO2 at 37° C. The compound was dissolved into 100% DMSO and diluted to 1 mM, then diluted with DMSO in 4 times serial dilution to the lowest concentration of 0.061 μM. Each concentration point was further diluted 50 times with IMDM medium. If the IC50 value of the compound was very low, the initial concentration of the compound can be reduced. 3 μl Diluted compound was added into each well, centrifuged and mixed well gently. The medium without cells was used as negative control (100% inhibition), and the group with 0.2% DMSO was used as positive control (0% inhibition).
The 384 well plate was placed in the incubator at 37° C. and 5% CO2 for further incubation. After 96 hours, the plate was taken out and placed at room temperature for 30 minutes. […] Then the cold light signal was read by Envision (Perkin Elmer). […]
The percentage of inhibition of KM12 cell proliferation by the compounds can be calculated by the following formula: Inhibition percentage=100−100*{[(Signalcompound−Signalnegative control)−T0control]/[(Signalpositive control−Signalnegative control)−T0control]}
The IC50 values of compounds were calculated by XLfit (ID Business Solutions Ltd., UK) software at 8 concentration points through the following formula: Y=Bottom+(Top−Bottom)/(1+10^((Log IC50−X)*slope factor))
Of which, Y is the inhibition percentage, Bottom is the bottom plateau of the curve (the bottom platform value of S curve), Top is the top plateau of the curve (the top platform value of S curve), X is the logarithm of the concentration of the compound to be measured.

[1] = early clinical trials, cited from earlier work

T2 sequence (P04629 33-796 G595R): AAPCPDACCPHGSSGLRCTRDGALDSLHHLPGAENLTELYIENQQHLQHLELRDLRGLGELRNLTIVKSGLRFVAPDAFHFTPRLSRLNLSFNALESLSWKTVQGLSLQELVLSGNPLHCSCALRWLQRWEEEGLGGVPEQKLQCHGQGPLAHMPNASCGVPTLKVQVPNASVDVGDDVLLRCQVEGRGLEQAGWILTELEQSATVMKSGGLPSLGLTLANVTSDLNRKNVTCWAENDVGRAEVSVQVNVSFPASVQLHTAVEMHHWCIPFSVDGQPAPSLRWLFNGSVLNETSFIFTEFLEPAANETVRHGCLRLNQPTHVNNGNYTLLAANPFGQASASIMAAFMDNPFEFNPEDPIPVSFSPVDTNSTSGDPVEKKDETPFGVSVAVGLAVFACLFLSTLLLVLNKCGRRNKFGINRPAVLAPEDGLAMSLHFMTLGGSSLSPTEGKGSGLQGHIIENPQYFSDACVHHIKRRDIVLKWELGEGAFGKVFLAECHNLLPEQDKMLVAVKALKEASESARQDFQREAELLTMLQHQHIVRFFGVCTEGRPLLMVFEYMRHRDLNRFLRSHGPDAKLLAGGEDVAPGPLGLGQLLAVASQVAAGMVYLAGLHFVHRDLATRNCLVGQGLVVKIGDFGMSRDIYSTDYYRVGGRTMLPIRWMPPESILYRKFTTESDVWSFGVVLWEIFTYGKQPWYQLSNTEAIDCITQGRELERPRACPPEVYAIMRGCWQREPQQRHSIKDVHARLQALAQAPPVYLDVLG
Sequence of TRKA (P04629 33-796): as the sequence (P04629 33-796 G595R) above, with R563G counted along it
T1 sequence (P04629 33-796 G667C): as the sequence (P04629 33-796 G595R) above, with R563G, G635C counted along it

IC50 (TRKA) | IC50 (TRKA G667C) | IC50 (TRKA G595R) | SMILES | GI50 (KM12 cells) | patients in complete remission ([1]; 6 patients, no tumor detectable by existing methods) | patients who achieved objective responses ([1]; 38 patients) | patients in remission for more than a year [1]
0.24 nM | 1.63 nM | 0.26 nM | C[C@H]1CNC(=O)Nc2cnn3ccc(nc23)N2C[C@@H](F)C[C@@H]2c2cc(F)cnc2O1 [Compound 1, (2^2R,2^4S,5S)-2^4,3^5-difluoro-5-methyl-4-oxa-7,9-diaza-1(5,3)-pyrazolo[1,5-a]pyrimidin-3(3,2)-pyridin-2(1,2)-pyrrolidincyclononan-8-one] | 0.43 nM | – | – | –
0.97 nM | 16.3 nM | 12.2 nM | O=C1NCCOc2ncc(F)cc2[C@H]2C[C@H](F)CN2c2ccn3ncc(c3n2)N1 [Compound 2, (2^2R,2^4S)-2^4,3^5-difluoro-4-oxa-7,9-diaza-1(5,3)-pyrazolo[1,5-a]pyrimidin-3(3,2)-pyridin-2(1,2)-pyrrolidincyclononan-8-one] | 3.12 nM | – | – | –
1.46 nM | – | 10.2 nM | CN1CCOc2ncc(F)cc2[C@H]2C[C@H](F)CN2c2ccn3ncc(c3n2)NC1=O [Compound 3, (2^2R,2^4S)-2^4,3^5-difluoro-7-methyl-4-oxa-7,9-diaza-1(5,3)-pyrazolo[1,5-a]pyrimidin-3(3,2)-pyridin-2(1,2)-pyrrolidincyclononan-8-one] | 33.7 nM | – | – | –
1.08 nM | – | 1.4 nM | C[C@H]1CCNC(=O)Nc2cnn3ccc(nc23)N2CCC[C@@H]2c2cc(F)cnc2O1 [Compound 4, (2^2R,5S)-3^5-fluoro-5-methyl-4-oxa-8,10-diaza-1(5,3)-pyrazolo[1,5-a]pyrimidin-3(3,2)-pyridin-2(1,2)-pyrrolidincyclodecan-9-one] | 2.26 nM | – | – | –
– | – | – | O=C(Nc1cnn2ccc(N3CCC[C@@H]3c3cc(F)ccc3F)nc12)N1CC[C@H](O)C1 [larotrectinib] | – | 12% | 76% | 30 patients
